Earlier results on 1 compound are cited in patent US7749961B2, “Macrocyclic peptides active against the hepatitis C virus” (Boehringer Ingelheim International GmbH, priority 2004, dated 2010).

The subject of this data set is hepatitis C virus. Particulars: two day clinical trial.

In the case of `COc1ccc2c(O[C@@H]3C[C@H]4C(=O)N[C@]5(C(=O)O)C[C@H]5/C=C\CCCCC[C@H](NC(=O)OC5CCCC5)C(=O)N4C3)cc(-c3csc(NC(C)C)n3)nc2c1` [BILN 2061], the “reduction of viral loads in patients infected with the hepatitis C virus” value was “effective in rapidly reducing viral loads”.
